# Laboratory results as given in ChEMBL document CHEMBL4330128, “Discovery of two novel branched peptidomimetics containing endomorphin-2 and RF9 pharmacophores: Synthesis and neuropharmacological evaluation” (Bioorg Med Chem, 2019).
# Active and inactive are the calls of the source. The calls are words filed in the database; no cut-off is given here. Where a SMILES comes first, the peptide text is derived from it. Side-chain parts run from the residue outwards. The star is where a group is joined. Adamantane1carbonyl = O=C(C12CC3CC(CC(C3)C1)C2)*
# Columns and labels:
# [1] = target: Neuropeptide FF receptor 2 (Mus musculus) (UniProt Q924H0); assay: Antagonist activity at NPFF2 receptor in mouse Neuro2a cells assessed as inhibition of NPFF-induced neurite outgrowth by measuring neurite outgrowth at 10 uM after 18 hrs by phase contrast microscopic analysis (reference value: 24.05 +/- 1.19%); assay type: cell-based; set-up: scale not given: the % may be the effect or the level left
# [2] = target: T1, Neuropeptide FF receptor 1 (Homo sapiens, UniProt Q9GZQ6); assay: Antagonist activity at NPFF1 receptor (unknown origin) expressed in HEK293A cells assessed as reversal of […] induced inhibition of forskolin-stimulated cAMP accumulation measured after 30 mins; assay type: functional, cell-based
# [3] = test system: Mus musculus; assay: Antinociceptive activity in Kunming mouse model of thermal-induced nociception assessed as increase in latency to tail withdrawal at 10 nmol, icv measured up to 60 mins by tail flick test; assay type: functional, organism-based
# [4] = test system: N2a; assay: Effect on neurite outgrowth in mouse Neuro2a cells at 10 uM after 18 hrs by phase contrast microscopic analysis relative to control; assay type: cell-based
# [5] = test system: Mus musculus; assay: Antinociceptive activity in icv dosed Kunming mouse model of thermal-induced nociception assessed as increase in latency to tail withdrawal up to 60 mins radiant heat tail flick method; assay type: functional
# [6] = target: Mu-type opioid receptor (Homo sapiens, UniProt P35372); assay: Agonist activity at mu-opioid receptor (unknown origin) expressed in HEK293A cells assessed as inhibition of forskolin-induced cAMP accumulation measured after 30 mins; assay type: functional, cell-based
# [7] = Toxicity in Kunming mouse assessed as inhibition of gastrointestinal transit by measuring reduction in distance traveled by charcoal at 10 to 30 mg/kg, ip dosed 15 mins prior charcoal meal measured after 30 mins; assay type: organism-based; details: in vivo, 0.5 h
# [8] = test system: Mus musculus; assay: Antiallodynic activity in carrageenan-induced Kunming mouse model of mechanical hyperalgesia administered as intrathecal injection after 10 to 90 mins in presence of opioid receptor antagonist naloxone by Von Frey filament assay; assay type: functional, organism-based
# [9] = test system: Mus musculus; assay: Antinociceptive activity in Kunming mouse model of thermal-induced nociception assessed as increase in latency to tail withdrawal at 20 nmol, icv measured up to 60 mins in presence of mu-opioid receptor antagonist beta-FNA by tail flick test; assay type: functional, organism-based
# [10] = test system: Mus musculus; assay: Antinociceptive activity in Kunming mouse model of thermal-induced nociception assessed as increase in latency to tail withdrawal at 2 to 4 nmol, icv administered once daily for 8 days measured daily at 30 mins post dose in presence of NPFF receptor antagonist RF9 by tail flick test; assay type: functional, organism-based
# [11] = target: T2, Neuropeptide FF receptor 2 (Homo sapiens, UniProt Q9Y5X5); assay: Antagonist activity at NPFF2 receptor (unknown origin) expressed in HEK293A cells assessed as reversal of […] induced inhibition of forskolin-stimulated cAMP accumulation measured after 30 mins; assay type: functional, cell-based
# [12] = test system: Mus musculus; assay: Antinociceptive activity in Kunming mouse model of thermal-induced nociception assessed as increase in latency to tail withdrawal at 10 nmol, icv measured up to 60 mins in presence of NPFF receptor antagonist RF9 by tail flick test; assay type: functional, organism-based
# [13] = Toxicity in Kunming mouse assessed as impairment of motor coordination at 20 nmol, icv measured after 10 to 40 mins by rotarod test; details: in vivo, icv_or_intrathecal
# [14] = target: Delta-type opioid receptor (Homo sapiens, UniProt P41143); assay: Agonist activity at delta-opioid receptor (unknown origin) expressed in HEK293A cells assessed as inhibition of forskolin-induced cAMP accumulation measured after 30 mins; assay type: functional, cell-based
# [15] = target: Kappa-type opioid receptor (Homo sapiens) (UniProt P41145)
# Description: Agonist activity at kappa-opioid receptor (unknown origin) expressed in HEK293A cells assessed as inhibition of forskolin-induced cAMP accumulation measured after 30 mins
# [16] = Toxicity in Kunming mouse assessed as inhibition of gastrointestinal transit by measuring reduction in distance traveled by charcoal at 5 to 20 nmol, icv dosed 15 mins prior charcoal meal measured after 30 mins; assay type: organism-based; details: in vivo, icv_or_intrathecal, 0.5 h
# [17] = test system: Mus musculus; assay: Antinociceptive activity in Kunming mouse model of thermal-induced nociception assessed as increase in latency to tail withdrawal at 20 nmol, icv measured up to 60 mins in presence of opioid receptor antagonist naloxone by tail flick test; assay type: functional, organism-based
# [18] = test system: Mus musculus; assay: Antiallodynic activity in carrageenan-induced Kunming mouse model of mechanical hyperalgesia administered as intrathecal injection after 10 to 90 mins in presence of NPFF receptor antagonist RF9 by Von Frey filament assay; assay type: functional, organism-based
# [19] = Toxicity in Kunming mouse assessed as impairment of motor coordination at 20 nmol, it measured after 10 to 40 mins by rotarod test; details: in vivo, icv_or_intrathecal
# [20] = target: T2, Neuropeptide FF receptor 2; assay: Agonist activity at NPFF2 receptor (unknown origin) expressed in HEK293A cells assessed as inhibition of forskolin-stimulated cAMP accumulation measured after 30 mins; assay type: functional, cell-based
# [21] = test system: Mus musculus; assay: Antinociceptive activity in Kunming mouse model of thermal-induced nociception assessed as increase in latency to tail withdrawal at 10 to 20 nmol, icv administered once daily for 5 to 8 days measured daily at 30 mins post dose by tail flick test; assay type: functional, organism-based
# [22] = Toxicity in Kunming mouse assessed as inhibition of gastrointestinal transit by measuring reduction in distance traveled by charcoal at 10 mg/kg, ip dosed 15 mins prior charcoal meal measured after 30 mins; assay type: organism-based; details: in vivo, 0.5 h
# [23] = test system: Mus musculus; assay: Antiallodynic activity in carrageenan-induced Kunming mouse model of mechanical hyperalgesia administered as intrathecal injection after 10 to 90 mins by Von Frey filament assay; assay type: functional
# [24] = test system: Mus musculus; assay: Antinociceptive activity in Kunming mouse model of thermal-induced nociception assessed as increase in latency to tail withdrawal at 20 nmol, icv measured up to 60 mins in presence of delta-opioid receptor antagonist naltrindole by tail flick test; assay type: functional, organism-based
# [25] = test system: Mus musculus; assay: Antinociceptive activity in Kunming mouse model of thermal-induced nociception assessed as increase in latency to tail withdrawal at 20 nmol, icv measured up to 60 mins in presence of kappa-opioid receptor antagonist nor-BNI by tail flick test; assay type: functional, organism-based
# [26] = target: T2, Neuropeptide FF receptor 2; assay: Agonist activity at NPFF2 receptor (unknown origin) expressed in HEK293A cells assessed as inhibition of forskolin-stimulated cAMP accumulation measured after 30 mins relative to NPFF; assay type: functional, cell-based
# [27] = target: T1, Neuropeptide FF receptor 1; assay: Agonist activity at NPFF1 receptor (unknown origin) expressed in HEK293A cells assessed as inhibition of forskolin-stimulated cAMP accumulation measured after 30 mins; assay type: functional, cell-based
# [28] = test system: Mus musculus; assay: Antinociceptive activity in icv dosed Kunming mouse model of thermal-induced nociception assessed as increase in latency to tail withdrawal by tail flick test; assay type: functional
# [29] = test system: Mus musculus; assay: Antinociceptive activity in Kunming mouse model of thermal-induced nociception assessed as increase in latency to tail withdrawal at 4 nmol, icv administered once daily for 8 days measured daily at 30 mins post dose by tail flick test relative to control; assay type: functional
# [30] = test system: Mus musculus; assay: Antinociceptive activity in Kunming mouse model of thermal-induced nociception assessed as increase in latency to tail withdrawal at 2 to 4 nmol, icv administered once daily for 8 days measured on days 6 to 8 at 30 mins post dose in presence of NPFF receptor antagonist RF9 by tail flick test; assay type: functional, organism-based
# [31] = test system: Mus musculus; assay: Antinociceptive activity in Kunming mouse model of thermal-induced nociception assessed as increase in latency to tail withdrawal at 2 nmol, icv administered once daily for 8 days measured daily at 30 mins post dose by tail flick test relative to control; assay type: functional
# [32] = test system: Mus musculus; assay: Antinociceptive activity in Kunming mouse model of thermal-induced nociception assessed as increase in latency to tail withdrawal at 2 to 4 nmol, icv administered once daily for 5 days measured daily at 30 mins post dose by tail flick test; assay type: functional, organism-based
# [33] = test system: Mus musculus; assay: Antinociceptive activity in Kunming mouse model of thermal-induced nociception assessed as increase in latency to tail withdrawal at 5 nmol, icv measured up to 60 mins by tail flick test; assay type: functional, organism-based
# Chain of Neuropeptide FF receptor 2 (Mus musculus) (Q924H0 whole entry): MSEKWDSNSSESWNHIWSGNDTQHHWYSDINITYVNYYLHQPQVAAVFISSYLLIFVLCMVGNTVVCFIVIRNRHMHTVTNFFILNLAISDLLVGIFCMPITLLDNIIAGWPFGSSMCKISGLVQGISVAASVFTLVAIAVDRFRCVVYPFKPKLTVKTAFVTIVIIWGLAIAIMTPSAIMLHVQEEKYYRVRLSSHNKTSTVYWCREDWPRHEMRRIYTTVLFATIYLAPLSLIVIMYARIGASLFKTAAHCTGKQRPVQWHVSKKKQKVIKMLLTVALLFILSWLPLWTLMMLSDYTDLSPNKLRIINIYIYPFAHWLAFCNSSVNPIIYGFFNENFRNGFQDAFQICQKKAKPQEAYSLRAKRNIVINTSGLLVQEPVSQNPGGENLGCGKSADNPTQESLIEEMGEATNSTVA
# Chain of Mu-type opioid receptor (P35372 whole entry): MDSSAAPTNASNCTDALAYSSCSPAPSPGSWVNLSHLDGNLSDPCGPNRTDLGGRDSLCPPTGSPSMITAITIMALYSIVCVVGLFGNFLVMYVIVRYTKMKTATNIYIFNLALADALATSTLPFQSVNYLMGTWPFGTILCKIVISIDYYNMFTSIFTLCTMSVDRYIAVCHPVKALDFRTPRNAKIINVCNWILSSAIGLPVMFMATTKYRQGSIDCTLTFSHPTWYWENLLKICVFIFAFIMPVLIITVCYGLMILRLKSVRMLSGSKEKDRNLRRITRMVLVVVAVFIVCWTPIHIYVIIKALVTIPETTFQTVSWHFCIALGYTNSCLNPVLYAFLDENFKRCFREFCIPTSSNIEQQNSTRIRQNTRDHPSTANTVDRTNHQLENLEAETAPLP
# T2 sequence (Q9Y5X5 whole entry): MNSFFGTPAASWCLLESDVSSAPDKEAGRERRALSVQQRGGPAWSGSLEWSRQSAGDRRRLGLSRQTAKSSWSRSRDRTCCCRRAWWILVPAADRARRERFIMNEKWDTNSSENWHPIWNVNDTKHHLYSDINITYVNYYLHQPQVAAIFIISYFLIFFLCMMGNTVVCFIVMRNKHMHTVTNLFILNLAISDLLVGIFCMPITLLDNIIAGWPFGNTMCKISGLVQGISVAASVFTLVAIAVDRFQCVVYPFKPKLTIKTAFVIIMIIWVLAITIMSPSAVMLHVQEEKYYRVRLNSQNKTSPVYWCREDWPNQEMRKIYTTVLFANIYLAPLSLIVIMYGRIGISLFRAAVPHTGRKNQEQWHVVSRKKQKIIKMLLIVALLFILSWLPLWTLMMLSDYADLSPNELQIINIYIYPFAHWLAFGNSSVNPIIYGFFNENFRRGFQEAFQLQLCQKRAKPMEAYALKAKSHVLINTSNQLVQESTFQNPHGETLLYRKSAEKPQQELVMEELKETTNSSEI
# Chain of Delta-type opioid receptor (P41143 whole entry): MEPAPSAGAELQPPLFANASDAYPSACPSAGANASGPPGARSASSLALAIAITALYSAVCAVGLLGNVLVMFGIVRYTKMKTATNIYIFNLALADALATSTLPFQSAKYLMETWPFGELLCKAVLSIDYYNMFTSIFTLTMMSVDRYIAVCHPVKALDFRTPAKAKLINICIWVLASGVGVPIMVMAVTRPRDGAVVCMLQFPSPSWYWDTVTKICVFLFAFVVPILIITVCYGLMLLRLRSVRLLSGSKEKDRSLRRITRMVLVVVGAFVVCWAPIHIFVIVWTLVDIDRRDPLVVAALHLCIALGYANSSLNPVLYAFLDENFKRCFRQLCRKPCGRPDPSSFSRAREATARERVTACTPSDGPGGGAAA
# T1 sequence (Q9GZQ6 whole entry): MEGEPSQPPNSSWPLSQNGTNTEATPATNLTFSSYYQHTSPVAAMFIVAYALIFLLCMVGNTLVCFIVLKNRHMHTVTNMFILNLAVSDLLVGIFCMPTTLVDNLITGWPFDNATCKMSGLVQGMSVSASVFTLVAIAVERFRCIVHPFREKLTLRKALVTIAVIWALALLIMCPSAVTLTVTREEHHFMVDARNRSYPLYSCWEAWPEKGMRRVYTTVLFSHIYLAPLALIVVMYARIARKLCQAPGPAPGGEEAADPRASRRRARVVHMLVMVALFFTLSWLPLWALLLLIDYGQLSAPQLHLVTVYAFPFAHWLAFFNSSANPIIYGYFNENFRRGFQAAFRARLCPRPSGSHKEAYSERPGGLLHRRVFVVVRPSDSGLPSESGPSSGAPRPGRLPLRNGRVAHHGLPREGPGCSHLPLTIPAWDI
# Chain of Kappa-type opioid receptor (Homo sapiens) (P41145 whole entry): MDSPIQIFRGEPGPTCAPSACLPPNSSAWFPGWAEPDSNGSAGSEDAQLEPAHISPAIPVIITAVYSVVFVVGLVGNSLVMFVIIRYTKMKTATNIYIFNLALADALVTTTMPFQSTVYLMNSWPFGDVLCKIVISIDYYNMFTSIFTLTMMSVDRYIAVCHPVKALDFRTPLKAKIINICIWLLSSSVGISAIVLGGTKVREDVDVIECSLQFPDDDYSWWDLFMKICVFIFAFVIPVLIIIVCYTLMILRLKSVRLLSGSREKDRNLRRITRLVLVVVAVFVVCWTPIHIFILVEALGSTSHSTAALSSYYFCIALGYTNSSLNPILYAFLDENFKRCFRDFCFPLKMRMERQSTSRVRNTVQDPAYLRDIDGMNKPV
smiles,measurement,setting,value
N=C(N)NCCC[C@H](NC(=O)C12CC3CC(CC(C3)C1)C2)C(=O)N[C@@H](Cc1ccccc1)C(N)=O,Activity,[1],12.9%
same,inhibition,[2],Dose-dependent effect
same,Activity,[3],inactive
Oc1ccc2c3c1O[C@H]1c4[nH]c5ccccc5c4C[C@@]4(O)[C@@H](C2)N(CC2CC2)CC[C@]314,Activity,[3],inactive
NC(=O)[C@H](Cc1ccccc1)NC(=O)[C@H](Cc1ccccc1)NC(=O)[C@@H]1CCCN1C(=O)[C@@H](N)Cc1ccc(O)cc1 [ENDOMORPHIN 2],Activity,[4],16.49%
same,ED50,[5],6.88 nmol
same,Emax,[6],76.8%
same,Activity,[7],Non-Toxic
N=C(N)NCCC[C@H](NC(=O)C12CC3CC(CC(C3)C1)C2)C(=O)N[C@@H](Cc1ccccc1)C(=O)N[C@@H](CCCCNC(=O)[C@H](Cc1ccccc1)NC(=O)[C@H](Cc1ccccc1)NC(=O)[C@@H]1CCCN1C(=O)[C@@H](N)Cc1ccc(O)cc1)C(N)=O,Activity,[8],inactive
same,Activity,[1],14.1%
same,IC50,[2],190 nM
same,inhibition,[2],Dose-dependent effect
same,Activity,[4],12.71%
same,Activity,[9],inactive
same,Activity,[10],Active
same,IC50,[11],190 nM
same,Activity,[12],Active
same,Activity,[13],Non-Toxic
same,Emax,[14],inactive
same,pEC50,[14],inactive
same,EC50,[6],1900 nM
same,Emax,[6],62%
same,pEC50,[15],inactive
same,Activity,[16],Non-Toxic
same,Activity,[17],inactive
same,Activity,[18],inactive
same,Activity,[19],Non-Toxic
same,EC50,[20],250 nM
same,Emax,[20],31.3%
same,inhibition,[20],Dose-dependent effect
same,Activity,[21],Active
same,Activity,[22],Non-Toxic
same,Activity,[23],Dose-dependent effect
same,ED50,[23],8.16 nmol
same,Activity,[24],Active
same,Activity,[25],Active
same,Emax,[26],60%
same,Emax,[27],inactive
same,pEC50,[27],inactive
same,ED50,[28],4.8 nmol
COC(=O)/C=C/C(=O)N[C@@H]1CC[C@@]2(O)[C@H]3Cc4ccc(O)c5c4[C@@]2(CCN3CC2CC2)[C@H]1O5,Activity,[3],inactive
Oc1ccc2c3c1O[C@H]1c4[nH]c5c(c4C[C@@]4(O)[C@@H](C2)N(CC2CC2)CC[C@]314)C[C@@]1(O)[C@H]2Cc3ccc(O)c4c3[C@@]1(CCN2CC1CC1)[C@H]5O4,Activity,[3],inactive
CN1CC[C@]23c4c5ccc(O)c4O[C@H]2[C@@H](O)C=C[C@H]3[C@H]1C5 [MORPHINE],Activity,[8],inactive
same,MPE,[29],9.88%
same,Activity,[30],Active
same,MPE,[31],6.67%
same,Activity,[32],inactive
same,Activity,[18],Active
same,Activity,[22],Toxic
same,Activity,[23],Dose-dependent effect
same,ED50,[23],0.44 nmol
N=C(N)NCCC[C@H](NC(=O)C12CC3CC(CC(C3)C1)C2)C(=O)N[C@@H](Cc1ccccc1)C(=O)NCCCC[C@H](NC(=O)[C@H](Cc1ccccc1)NC(=O)[C@H](Cc1ccccc1)NC(=O)[C@@H]1CCCN1C(=O)[C@@H](N)Cc1ccc(O)cc1)C(N)=O (H-YPFFK([Phe-Arg-Adamantane1carbonyl])-NH2),Activity,[8],inactive
same,Activity,[1],10.3%
same,IC50,[2],520 nM
same,inhibition,[2],Dose-dependent effect
same,Activity,[4],11.88%
same,Activity,[10],Active
same,IC50,[11],520 nM
same,Activity,[12],Active
same,Activity,[13],Non-Toxic
same,Emax,[14],55.9%
same,EC50,[14]; read-out: EC50,2240 nM
same,EC50,[14]; read-out: pEC50 (converted),2000 nM
same,EC50,[6],1770 nM
same,Emax,[6],54.3%
same,pEC50,[15],inactive
same,Activity,[16],Non-Toxic
same,Activity,[17],inactive
same,Activity,[18],inactive
same,Activity,[19],Non-Toxic
same,EC50,[20],170 nM
same,Emax,[20],26.6%
same,inhibition,[20],Dose-dependent effect
same,Activity,[21],Active
same,Activity,[22],Non-Toxic
same,Activity,[23],Dose-dependent effect
same,ED50,[23],9.25 nmol
same,Emax,[26],50.9%
same,Emax,[27],inactive
same,pEC50,[27],inactive
same,ED50,[28],6.27 nmol
C=CCN1CC[C@]23c4c5ccc(O)c4O[C@H]2C(=O)CC[C@@]3(O)[C@H]1C5,Activity,[33],inactive
CC(C)C[C@H](NC(=O)[C@H](Cc1ccccc1)NC(=O)[C@H](C)N(C)C(=O)[C@@H]1CCCN1C(=O)[C@H](N)CC(N)=O)C(=O)N[C@@H](Cc1ccccc1)C(=O)N[C@@H](CCC(N)=O)C(=O)N1CCC[C@H]1C(=O)N[C@@H](CCC(N)=O)C(=O)N[C@@H](CCCNC(=N)N)C(=O)N[C@@H](Cc1ccccc1)C(N)=O,Activity,[8],inactive
same,Activity,[18],inactive
same,Activity,[23],Dose-dependent effect
same,ED50,[23],26.2 nmol
NC(=O)[C@H](Cc1ccccc1)NC(=O)[C@H](CCCN=C(N)N)NC(=O)C12CC3CC(CC(C3)C1)C2,IC50,[2],410 nM
same,Activity,[4],12.41%
same,IC50,[11],410 nM
